Columns and labels:
Conditions in all cases: 48 h
P12-Ichikawa [1] = test: cell viability relative to DMSO control; higher = less cytotoxic
In short: (§1)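 Viability, reported as a per-plate percentage of DMSO wells with cell-free wells as background, came from CellTiter-Glo One luminescence. Reading took place after 48 h at 37°C. Before that, NOMO1 or SEM (500 cells/well) or P12-Ichikawa (1000 cells/well) leukemia cells, adapted for at least four passages in each medium, were seeded in 1536-well plates (5 μl) and pin-dosed with library compounds in DMSO, 47 μM to 0.79 nM over 11 threefold points.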

SEM cells [2] = test: as above
In short: as §1

NOMO1 [3] = test: as above
In short: as §1

P12-Ichikawa [4] = test: AUC of viability dose-response curve (% viability x log10 dose units); higher = less sensitive
In short: (§2)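 In 1536-well plates, leukemia cells adapted to each medium (500 or 1000 cells/well) were exposed for 48 h at 37°C to library compounds in DMSO across 11 threefold doses, 47 μM down to 0.79 nM. Viability was read by CellTiter-Glo One luminescence and normalised per plate to DMSO and cell-free wells. A four-parameter log-logistic fit over log10 doses was integrated by trapezoidal rule. This yielded the area under the curve, with over-full-viability curves scaled and quality-control failures dropped.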

SEM cells [5] = test: as above
In short: as §2

NOMO1 [6] = test: as above
In short: as §2

CC(=O)[C@H]1CC[C@H]2[C@@H]3CCC4=CC(=O)CC[C@]4(C)[C@H]3CC[C@]12C
cell viability [%]
Conditions | NOMO1 [3] | P12-Ichikawa [1] | SEM cells [2]
HPLM + 10% dialyzed FBS, 0.000781 µM | 110 | 106 | 69
HPLM + 10% dialyzed FBS, 0.00234 µM | 122 | 114 | 83.5
HPLM + 10% dialyzed FBS, 0.00702 µM | 140 | 120 | 89.4
HPLM + 10% dialyzed FBS, 0.0211 µM | 136 | 112 | 92.3
HPLM + 10% dialyzed FBS, 0.0632 µM | 127 | 118 | 82.1
HPLM + 10% dialyzed FBS, 0.19 µM | 120 | 115 | 102
HPLM + 10% dialyzed FBS, 0.569 µM | 123 | 125 | 103
HPLM + 10% dialyzed FBS, 1.71 µM | 133 | 118 | 97
HPLM + 10% dialyzed FBS, 5.12 µM | 139 | 109 | 88.7
HPLM + 10% dialyzed FBS, 15.4 µM | 115 | 94.7 | 88.1
HPLM + 10% dialyzed FBS, 46.1 µM | 147 | 110 | 92.7
RPMI 5 mM glucose + 10% FBS, 0.000781 µM | 116 | – | 98
RPMI 5 mM glucose + 10% FBS, 0.00234 µM | 109 | – | 96.9
RPMI 5 mM glucose + 10% FBS, 0.00702 µM | 122 | – | 102
RPMI 5 mM glucose + 10% FBS, 0.0211 µM | 120 | – | 113
RPMI 5 mM glucose + 10% FBS, 0.0632 µM | 116 | – | 113
RPMI 5 mM glucose + 10% FBS, 0.19 µM | 111 | – | 116
RPMI 5 mM glucose + 10% FBS, 0.569 µM | 114 | – | 120
RPMI 5 mM glucose + 10% FBS, 1.71 µM | 123 | – | 106
RPMI 5 mM glucose + 10% FBS, 5.12 µM | 128 | – | 96.7
RPMI 5 mM glucose + 10% FBS, 15.4 µM | 120 | – | 101
RPMI 5 mM glucose + 10% FBS, 46.1 µM | 133 | – | 92.8
RPMI 5 mM glucose + 10% dialyzed FBS, 0.000781 µM | 114 | 98.1 | 108
RPMI 5 mM glucose + 10% dialyzed FBS, 0.00234 µM | 121 | 112 | 92.7
RPMI 5 mM glucose + 10% dialyzed FBS, 0.00702 µM | 134 | 108 | 103
RPMI 5 mM glucose + 10% dialyzed FBS, 0.0211 µM | 134 | 118 | 109
RPMI 5 mM glucose + 10% dialyzed FBS, 0.0632 µM | 127 | 120 | 103
RPMI 5 mM glucose + 10% dialyzed FBS, 0.19 µM | 135 | 125 | 119
RPMI 5 mM glucose + 10% dialyzed FBS, 0.569 µM | 136 | 120 | 106
RPMI 5 mM glucose + 10% dialyzed FBS, 1.71 µM | 141 | 116 | 117
RPMI 5 mM glucose + 10% dialyzed FBS, 5.12 µM | 158 | 105 | 90.8
RPMI 5 mM glucose + 10% dialyzed FBS, 15.4 µM | 140 | 91.9 | 81.7
RPMI 5 mM glucose + 10% dialyzed FBS, 46.1 µM | 150 | 114 | 90.7

AUC of viability dose-response curve
Conditions | NOMO1 [6] | P12-Ichikawa [4] | SEM cells [5]
HPLM + 10% dialyzed FBS | 454 | 465 | 432
RPMI 5 mM glucose + 10% FBS | 447 | 455 | 470
RPMI 5 mM glucose + 10% dialyzed FBS | 433 | 465 | 456

O=C(O)C1CCCN(CCC=C(c2ccccc2)c2ccccc2)C1 (centres undefined)
AUC of viability dose-response curve
Conditions | NOMO1 [6] | P12-Ichikawa [4] | SEM cells [5]
HPLM + 10% dialyzed FBS | 425 | 469 | 463
RPMI 5 mM glucose + 10% FBS | 453 | 459 | 462
RPMI 5 mM glucose + 10% dialyzed FBS | 465 | 474 | 464

CC(=O)NC[C@H]1CN(c2ccc(N3CCOCC3)c(F)c2)C(=O)O1
AUC of viability dose-response curve
Conditions | NOMO1 [6] | P12-Ichikawa [4] | SEM cells [5]
HPLM + 10% dialyzed FBS | 415 | 465 | 475
RPMI 5 mM glucose + 10% FBS | 473 | 449 | 476
RPMI 5 mM glucose + 10% dialyzed FBS | 450 | 429 | 475

COc1ccnc(C[S+]([O-])c2nc3cc(OC(F)F)ccc3[nH]2)c1OC (centres undefined)
cell viability [%]
Conditions | NOMO1 [3] | SEM cells [2]
HPLM + 10% dialyzed FBS, 0.000781 µM | 111 | 110
HPLM + 10% dialyzed FBS, 0.00234 µM | 124 | 111
HPLM + 10% dialyzed FBS, 0.00702 µM | 119 | 124
HPLM + 10% dialyzed FBS, 0.0211 µM | 131 | 123
HPLM + 10% dialyzed FBS, 0.0632 µM | 124 | 122
HPLM + 10% dialyzed FBS, 0.19 µM | 134 | 123
HPLM + 10% dialyzed FBS, 0.569 µM | 126 | 133
HPLM + 10% dialyzed FBS, 1.71 µM | 115 | 119
HPLM + 10% dialyzed FBS, 5.12 µM | 134 | 134
HPLM + 10% dialyzed FBS, 15.4 µM | 128 | 128
HPLM + 10% dialyzed FBS, 46.1 µM | 126 | 143
RPMI 5 mM glucose + 10% dialyzed FBS, 0.000781 µM | – | 111
RPMI 5 mM glucose + 10% dialyzed FBS, 0.00234 µM | – | 95.9
RPMI 5 mM glucose + 10% dialyzed FBS, 0.00702 µM | – | 126
RPMI 5 mM glucose + 10% dialyzed FBS, 0.0211 µM | – | 131
RPMI 5 mM glucose + 10% dialyzed FBS, 0.0632 µM | – | 125
RPMI 5 mM glucose + 10% dialyzed FBS, 0.19 µM | – | 118
RPMI 5 mM glucose + 10% dialyzed FBS, 0.569 µM | – | 127
RPMI 5 mM glucose + 10% dialyzed FBS, 1.71 µM | – | 144
RPMI 5 mM glucose + 10% dialyzed FBS, 5.12 µM | – | 126
RPMI 5 mM glucose + 10% dialyzed FBS, 15.4 µM | – | 130
RPMI 5 mM glucose + 10% dialyzed FBS, 46.1 µM | – | 137

AUC of viability dose-response curve
Conditions | NOMO1 [6] | P12-Ichikawa [4] | SEM cells [5]
HPLM + 10% dialyzed FBS | 459 | 474 | 435
RPMI 5 mM glucose + 10% FBS | 464 | 456 | 431
RPMI 5 mM glucose + 10% dialyzed FBS | 474 | 461 | 461

CC[C@@]1([C@@H]2O[C@@H]([C@H]3O[C@@](O)(CO)[C@H](C)C[C@@H]3C)C[C@@H]2C)CC[C@H]([C@]2(C)CC[C@]3(C[C@H](O)[C@@H](C)[C@@H]([C@@H](C)[C@@H](OC)[C@H](C)C(=O)[O-])O3)O2)O1
AUC of viability dose-response curve
Conditions | NOMO1 [6] | P12-Ichikawa [4] | SEM cells [5]
HPLM + 10% dialyzed FBS | 381 | 375 | 336
RPMI 5 mM glucose + 10% FBS | 409 | 350 | 324
RPMI 5 mM glucose + 10% dialyzed FBS | 393 | 340 | 343

Nc1cc(c(cc1S(=O)(N)=O)S(N)(=O)=O)C(/Cl)=C(/Cl)Cl
SEM cells [2], HPLM + 10% dialyzed FBS
Conditions | cell viability [%]
0.000781 µM | 110
0.00234 µM | 124
0.00702 µM | 140
0.0211 µM | 124
0.0632 µM | 128
0.19 µM | 120
0.569 µM | 132
1.71 µM | 126
5.12 µM | 86.4
15.4 µM | 10.4
46.1 µM | 9.94

AUC of viability dose-response curve
Conditions | NOMO1 [6] | P12-Ichikawa [4] | SEM cells [5]
HPLM + 10% dialyzed FBS | 344 | 335 | 396
RPMI 5 mM glucose + 10% FBS | 399 | 396 | 363
RPMI 5 mM glucose + 10% dialyzed FBS | 406 | 390 | 379

CCOC1=CC(=CC=C1C/2=N/[C@@](C)(C3=CC=C(Cl)C=C3)[C@](C)(N2C(=O)N4CCN(CC4)CC(=O)N5CCOCC5)C6=CC=C(Cl)C=C6)C(C)(C)C
cell viability [%]
Conditions | NOMO1 [3] | P12-Ichikawa [1] | SEM cells [2]
HPLM + 10% dialyzed FBS, 0.000781 µM | – | 104 | 82.5
HPLM + 10% dialyzed FBS, 0.00234 µM | – | 104 | 107
HPLM + 10% dialyzed FBS, 0.00702 µM | – | 101 | 108
HPLM + 10% dialyzed FBS, 0.0211 µM | – | 99.7 | 107
HPLM + 10% dialyzed FBS, 0.0632 µM | – | 101 | 117
HPLM + 10% dialyzed FBS, 0.19 µM | – | 102 | 106
HPLM + 10% dialyzed FBS, 0.569 µM | – | 104 | 105
HPLM + 10% dialyzed FBS, 1.71 µM | – | 101 | 93.5
HPLM + 10% dialyzed FBS, 5.12 µM | – | 101 | 81.1
HPLM + 10% dialyzed FBS, 15.4 µM | – | 82.9 | 66
HPLM + 10% dialyzed FBS, 46.1 µM | – | 87.1 | 71
RPMI 5 mM glucose + 10% FBS, 0.000781 µM | 93.3 | 104 | –
RPMI 5 mM glucose + 10% FBS, 0.00234 µM | 90.6 | 106 | –
RPMI 5 mM glucose + 10% FBS, 0.00702 µM | 96.3 | 97.9 | –
RPMI 5 mM glucose + 10% FBS, 0.0211 µM | 105 | 109 | –
RPMI 5 mM glucose + 10% FBS, 0.0632 µM | 112 | 112 | –
RPMI 5 mM glucose + 10% FBS, 0.19 µM | 121 | 108 | –
RPMI 5 mM glucose + 10% FBS, 0.569 µM | 98.6 | 101 | –
RPMI 5 mM glucose + 10% FBS, 1.71 µM | 99.3 | 103 | –
RPMI 5 mM glucose + 10% FBS, 5.12 µM | 102 | 92.2 | –
RPMI 5 mM glucose + 10% FBS, 15.4 µM | 91.6 | 97.6 | –
RPMI 5 mM glucose + 10% FBS, 46.1 µM | 97 | 89.9 | –
RPMI 5 mM glucose + 10% dialyzed FBS, 0.000781 µM | 92.6 | 109 | 112
RPMI 5 mM glucose + 10% dialyzed FBS, 0.00234 µM | 113 | 110 | 99.8
RPMI 5 mM glucose + 10% dialyzed FBS, 0.00702 µM | 102 | 112 | 108
RPMI 5 mM glucose + 10% dialyzed FBS, 0.0211 µM | 102 | 107 | 111
RPMI 5 mM glucose + 10% dialyzed FBS, 0.0632 µM | 126 | 99.2 | 107
RPMI 5 mM glucose + 10% dialyzed FBS, 0.19 µM | 120 | 102 | 109
RPMI 5 mM glucose + 10% dialyzed FBS, 0.569 µM | 124 | 107 | 116
RPMI 5 mM glucose + 10% dialyzed FBS, 1.71 µM | 100 | 97.6 | 109
RPMI 5 mM glucose + 10% dialyzed FBS, 5.12 µM | 81.8 | 99.7 | 90.2
RPMI 5 mM glucose + 10% dialyzed FBS, 15.4 µM | 90.1 | 89.8 | 65.2
RPMI 5 mM glucose + 10% dialyzed FBS, 46.1 µM | 86.2 | 97.7 | 61.4

AUC of viability dose-response curve
Conditions | HPLM + 10% dialyzed FBS | RPMI 5 mM glucose + 10% FBS | RPMI 5 mM glucose + 10% dialyzed FBS
P12-Ichikawa [4] | 465 | 461 | 443
SEM cells [5] | 436 | 432 | 439

Source: the supplement of paper PMC11451515
